Results taken from patent US20230257372A1 (CHONG KUN DANG PHARMACEUTICAL CORP., priority 2020, published 2023).
pIC50: −log10 of the molar value. Like-named read-outs stand apart in the source and are kept apart here.

Columns and labels:
human recombinant HDAC1 = target: T1, human recombinant HDAC1 (Homo sapiens, UniProt Q13547); experiment: HDAC1 enzyme activity inhibition (HDAC Fluorimetric Drug Discovery Kit); type: biochemical; conditions: read-out: HDAC1
T1 construct: purchased Enzo Life Science, Inc. BML-SE456
T1 sequence (Q13547 whole entry): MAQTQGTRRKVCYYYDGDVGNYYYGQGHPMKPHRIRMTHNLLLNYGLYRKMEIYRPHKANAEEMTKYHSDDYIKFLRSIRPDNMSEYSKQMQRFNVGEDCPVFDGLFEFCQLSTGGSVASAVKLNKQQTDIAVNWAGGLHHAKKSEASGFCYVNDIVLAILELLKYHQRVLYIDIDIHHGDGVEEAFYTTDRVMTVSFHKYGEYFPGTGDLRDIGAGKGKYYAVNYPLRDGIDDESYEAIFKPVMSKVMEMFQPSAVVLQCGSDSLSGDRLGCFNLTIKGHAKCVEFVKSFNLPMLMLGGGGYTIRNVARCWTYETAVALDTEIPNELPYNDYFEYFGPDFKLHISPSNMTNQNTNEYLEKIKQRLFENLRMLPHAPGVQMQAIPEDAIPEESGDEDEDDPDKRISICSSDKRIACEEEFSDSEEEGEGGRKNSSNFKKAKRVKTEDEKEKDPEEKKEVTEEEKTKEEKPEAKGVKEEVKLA
Procedure, shortened: (§1)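 Enzyme at 0.3 µg per well was reacted with 10 μM fluorogenic substrate in presence of 5-fold diluted compound, 30° C for 60 min.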

human recombinant HDAC6 = target: T2, human recombinant HDAC6 (Homo sapiens, UniProt Q9UBN7); experiment: HDAC6 enzyme activity inhibition (HDAC Fluorimetric Drug Discovery Kit); type: biochemical
T2 construct: purchased Calbiochem Inc. 382180
T2 sequence (Q9UBN7 1-1215): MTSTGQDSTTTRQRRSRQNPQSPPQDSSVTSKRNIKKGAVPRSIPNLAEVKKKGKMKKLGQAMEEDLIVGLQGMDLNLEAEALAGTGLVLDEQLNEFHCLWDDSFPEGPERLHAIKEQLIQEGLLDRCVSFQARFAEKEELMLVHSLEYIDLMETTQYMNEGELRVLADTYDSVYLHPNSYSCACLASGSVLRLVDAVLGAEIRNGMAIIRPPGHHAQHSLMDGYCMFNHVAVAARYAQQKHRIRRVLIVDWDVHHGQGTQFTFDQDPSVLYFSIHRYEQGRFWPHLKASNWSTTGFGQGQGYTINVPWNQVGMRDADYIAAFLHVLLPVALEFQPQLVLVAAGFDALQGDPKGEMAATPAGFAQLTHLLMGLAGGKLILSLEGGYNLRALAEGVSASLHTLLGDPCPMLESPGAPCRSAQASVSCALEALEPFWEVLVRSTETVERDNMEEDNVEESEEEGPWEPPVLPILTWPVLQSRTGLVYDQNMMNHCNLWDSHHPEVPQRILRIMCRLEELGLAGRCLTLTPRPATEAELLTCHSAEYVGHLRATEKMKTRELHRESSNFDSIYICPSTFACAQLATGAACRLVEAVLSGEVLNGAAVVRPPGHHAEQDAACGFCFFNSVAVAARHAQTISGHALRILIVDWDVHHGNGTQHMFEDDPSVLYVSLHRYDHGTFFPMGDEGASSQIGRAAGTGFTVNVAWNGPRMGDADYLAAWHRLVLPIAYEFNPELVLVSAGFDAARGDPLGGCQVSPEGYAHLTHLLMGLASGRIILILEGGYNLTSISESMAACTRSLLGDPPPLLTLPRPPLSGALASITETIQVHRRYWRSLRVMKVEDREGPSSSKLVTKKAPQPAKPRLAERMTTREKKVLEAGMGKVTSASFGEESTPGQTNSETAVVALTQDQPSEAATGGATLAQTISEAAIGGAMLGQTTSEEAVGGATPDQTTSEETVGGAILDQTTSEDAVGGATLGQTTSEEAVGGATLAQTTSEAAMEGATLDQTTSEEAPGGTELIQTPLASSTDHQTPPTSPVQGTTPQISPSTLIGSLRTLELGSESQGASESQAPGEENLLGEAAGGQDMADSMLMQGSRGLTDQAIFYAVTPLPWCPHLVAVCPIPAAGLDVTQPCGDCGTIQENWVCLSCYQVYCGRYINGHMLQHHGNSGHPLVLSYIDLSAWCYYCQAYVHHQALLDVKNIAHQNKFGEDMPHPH
Procedure, shortened: as §1

[1] = human recombinant HDAC1, IC50 calculated with GraphPad Prism
[2] = human recombinant HDAC6, IC50 calculated with GraphPad Prism
[3] = human recombinant HDAC1, Fluor de Lys substrate, 30° C. 60 minutes
[4] = human recombinant HDAC6, same protocol as HDAC1

| Structure (SMILES) | pIC50 (human recombinant HDAC1; [1]) | HDAC6 selectivity (fold) (human recombinant HDAC6; HDAC1 IC50 / HDAC6 IC50) | pIC50 (human recombinant HDAC6; [2]) | pIC50 (human recombinant HDAC1; [3]) | HDAC6 selectivity (fold) (human recombinant HDAC6; HDAC6 over HDAC1) | pIC50 (human recombinant HDAC6; [4]) |
| --- | --- | --- | --- | --- | --- | --- |
| CCN1CCN(Cc2ccc(-c3cn(Cc4ccc(-c5nnc(C(F)F)o5)cc4F)nn3)cc2)CC1 [Compound 4474, 2-(difluoromethyl)-5-(4-((4-(4-((4-ethylpiperazin-1-yl)methyl)phenyl)-1H-1,2,3-triazol-1-yl)methyl)-3-fluorophenyl)-1,3,4-oxadiazole] | < 4.30 | 1213 | 7.39 | – | – | – |
| CN(C)CCN(C)C(=O)c1cccc(-c2cn(Cc3ccc(-c4nnc(C(F)F)o4)cn3)nn2)c1 [Compound 4449, 3-(1-((5-(5-(difluoromethyl)-1,3,4-oxadiazol-2-yl)pyridin-2-yl)methyl)-1H-1,2,3-triazol-4-yl)-N-(2-(dimethylamino)ethyl)-N-methylbenzamide] | < 4.30 | 3759 | 7.88 | – | – | – |
| Fc1cc(-c2nnc(C(F)F)o2)cnc1Cn1cc(-c2cccc(CN3CCCC3)c2Cl)nn1 [Compound 19089] | – | – | – | < 4.30 | 665 | 7.12 |
| CC1CCN(Cc2ccc(-c3cn(Cc4ncc(-c5nnc(C(F)F)o5)cc4F)nn3)s2)CC1 [Compound 18310, 2-(difluoromethyl)-5-(5-fluoro-6-((4-(5-((4-methylpiperidin-1-yl)methyl)thiophen-2-yl)-1H-1,2,3-triazol-1-yl)methyl)pyridin-3-yl)-1,3,4-oxadiazole] | – | – | – | < 4.30 | 986 | 7.29 |
| CN(C)Cc1cccc(-c2cn(Cc3ccc(-c4nnc(C(F)F)o4)cc3F)nn2)c1Cl [Compound 18554, 1-(2-chloro-3-(1-(4-(5-(difluoromethyl)-1,3,4-oxadiazol-2-yl)-2-fluorobenzyl)-1H-1,2,3-triazol-4-yl)phenyl)-N,N-dimethylmethanamine] | – | – | – | < 4.30 | 1012 | 7.31 |
| Fc1cc(-c2nnc(C(F)F)o2)ccc1Cn1cc(-c2ccccn2)nn1 [Compound 18256, 2-(difluoromethyl)-5-(3-fluoro-4-((4-(pyridin-2-yl)-1H-1,2,3-triazol-1-yl)methyl)phenyl)-1,3,4-oxadiazole] | – | – | – | < 4.30 | 1144 | 7.36 |
| CC(C)C(=O)N1CC(c2cn(Cc3ccc(-c4nnc(C(F)F)o4)cn3)nn2)C1 [Compound 3958, 1-(3-(1-((5-(5-(difluoromethyl)-1,3,4-oxadiazol-2-yl)pyridin-2-yl)methyl)-1H-1,2,3-triazol-4-yl)azetidin-1-yl)-2-methylpropan-1-one] | < 4.30 | 116 | 6.37 | – | – | – |

Next, values leading:

| pIC50 (human recombinant HDAC1; [1]) | HDAC6 selectivity (fold) (human recombinant HDAC6; HDAC1 IC50 / HDAC6 IC50) | pIC50 (human recombinant HDAC6; [2]) | pIC50 (human recombinant HDAC1; [3]) | HDAC6 selectivity (fold) (human recombinant HDAC6; HDAC6 over HDAC1) | pIC50 (human recombinant HDAC6; [4]) | Structure (SMILES) |
| --- | --- | --- | --- | --- | --- | --- |
| < 4.30 | 6944 | 8.14 | – | – | – | Fc1cc(-c2nnc(C(F)F)o2)ccc1Cn1cc(-c2ccc(CN3CCC3)cc2)nn1 [Compound 4466, 2-(4-((4-(4-(azetidin-1-ylmethyl)phenyl)-1H-1,2,3-triazol-1-yl)methyl)-3-fluorophenyl)-5-(difluoromethyl)-1,3,4-oxadiazole] |
| < 4.30 | 100 | 6.30 | – | – | – | CCCCN1CC(c2cn(Cc3ccc(-c4nnc(C(F)F)o4)cn3)nn2)C1 [Compound 3953, 2-(6-((4-(1-butylazetidin-3-yl)-1H-1,2,3-triazol-1-yl)methyl)pyridin-3-yl)-5-(difluoromethyl)-1,3,4-oxadiazole] |
| < 4.30 | 93 | 6.27 | – | – | – | CC(=O)N1CC(c2cn(Cc3ccc(-c4nnc(C(F)F)o4)cn3)nn2)C1 [Compound 3956, 1-(3-(1-((5-(5-(difluoromethyl)-1,3,4-oxadiazol-2-yl)pyridin-2-yl)methyl)-1H-1,2,3-triazol-4-yl)azetidin-1-yl)ethan-1-one] |
| – | – | – | < 4.30 | 98 | 6.30 | Fc1cc(-c2nnc(C(F)F)o2)cnc1Cn1cc(-c2ccccc2CN2CCC2)nn1 [Compound 18822, 2-(6-((4-(2-(azetidin-1-ylmethyl)phenyl)-1H-1,2,3-triazol-1-yl)methyl)-5-fluoropyridin-3-yl)-5-(difluoromethyl)-1,3,4-oxadiazole] |
